Tests used:
Assay type in all cases: cell-based
[1] = tested on: multi-resistant Staphylococcus aureus 222 (MRSA-222); assay: Paper diffusion method drug sensitivity test, MRSA-222; conditions: for Zone of inhibition: strain MRSA-222, drug sensitive paper 30 μg/tablet, 6.35 mm, LB plate, 37° C., 24 h, ≥17 mm sensitive, 15-16 mm intermediary, ≤14 mm resistance; for inhibitory effect (in words): multi-drug resistant Staphylococcus aureus 222, paper diffusion
Method: (§1) The antimicrobial efficacy was determined by a paper diffusion method drug sensitivity test.
(§2) Experimental strains: multi-resistant Staphylococcus aureus 171, multi-resistant Staphylococcus aureus 222, multi-resistant Staphylococcus aureus 575. The experimental strains were identified by Huashan Hospital Affiliated to Fudan University (Institute of Antibiotic of Fudan University).
(§3) Drug sensitive paper: The drug sensitive paper is a special drug sensitive paper with a diameter of 6.35 mm and a water absorption of 0.02 mL. The control drug was vancomycin (30 μg/tablet); the test drugs were pleuromutilin (E)-4-(1-imidazoyl-methyl)cinnamic acid ester (30 μg/tablet).
(§4) The experimental strains were inoculated in non-selective medium and placed in air at 37° C. for 24 h. Pick a single colony that grows well and inoculate it into broth medium, incubate at 35° C.±2° C. for 6 hours, and use LA broth medium to calibrate the concentration of the bacterial solution to 0.5 Mie turbidimetric tube ([…]). A bacterial suspension is obtained.
(§5) LB dry powder was weighed, sterilized at 103.4 Kpa, 121.3° C. high-pressure steam for 15 min, and then placed it in a 40° C.-50° C. water bath. A sterile empty plate (inner diameter 9 cm) was placed on the surface of the ultra-clean table water table, and […] to the plate. The thickness of each plate was 3 mm to 4 mm. After the plate was cooled at room temperature, it was stored in the refrigerator at 2° C.-8° C. A sterile cotton swab was used to dip the bacterial solution and to evenly coat the surface of the LB plate 3 times. After inoculation of the bacterial suspension, the LB plate was dried at room temperature for 3 min to 5 min. Sterile forceps were used to closely attach the antibacterial drug paper to the dish. The dish was put upside down and placed in a 37° C. incubator for 24 h. The results were observed by measuring the diameter. Taking 0.5% DMSO solution as a negative control, the antibacterial activity is expressed by the diameter of the inhibition zone. The inhibition zone ≥17 mm, sensitive; the inhibition zone of 15 mm-16 mm, intermediary; the inhibition zone ≤14 mm, drug resistance.

[2] = tested on: multi-resistant Staphylococcus aureus 575 (MRSA-575); assay: Paper diffusion method drug sensitivity test, MRSA-575; conditions: for Zone of inhibition: strain MRSA-575, drug sensitive paper 30 μg/tablet, 6.35 mm, LB plate, 37° C., 24 h, ≥17 mm sensitive, 15-16 mm intermediary, ≤14 mm resistance; for inhibitory effect (in words): multi-drug resistant Staphylococcus aureus 575, paper diffusion
Method: as §1, §2, §3, §4, §5

[3] = tested on: multi-resistant Staphylococcus aureus 171 (MRSA-171); assay: Paper diffusion method drug sensitivity test, MRSA-171; conditions: for Zone of inhibition: strain MRSA-171, drug sensitive paper 30 μg/tablet, 6.35 mm, LB plate, 37° C., 24 h, ≥17 mm sensitive, 15-16 mm intermediary, ≤14 mm resistance; for inhibitory effect (in words): multi-drug resistant Staphylococcus aureus 171, paper diffusion
Method: as §1, §2, §3, §4, §5

## CN[C@H](CC(C)C)C(=O)N[C@H]1C(=O)N[C@@H](CC(N)=O)C(=O)N[C@H]2C(=O)N[C@H]3C(=O)N[C@H](C(=O)N[C@H](C(=O)O)c4cc(O)cc(O)c4-c4cc3ccc4O)[C@H](O)c3ccc(c(Cl)c3)Oc3cc2cc(c3O[C@@H]2O[C@H](CO)[C@@H](O)[C@H](O)[C@H]2O[C@H]2C[C@](C)(N)[C@H](O)[C@H](C)O2)Oc2ccc(cc2Cl)[C@H]1O [Vancomycin, vancomycin]
[1]
  Zone of inhibition: 18 mm
[2]
  Zone of inhibition: 21 mm
[3]
  Zone of inhibition: 17 mm

## C=C[C@]1(C)C[C@@H](OC(=O)CO)[C@]2(C)[C@H](C)CC[C@]3(CCC(=O)[C@H]32)[C@@H](C)[C@@H]1O [Pleuromutilin]
[1]
  inhibitory effect (in words): no inhibitory effect
  Zone of inhibition: 0 mm
[2]
  inhibitory effect (in words): no inhibitory effect
  Zone of inhibition: 0 mm
[3]
  inhibitory effect (in words): no inhibitory effect
  Zone of inhibition: 0 mm

## C=C[C@]1(C)C[C@@H](OC(=O)COC(=O)/C=C/c2ccc(Cn3ccnc3)cc2)[C@]2(C)[C@H](C)CC[C@]3(CCC(=O)[C@H]32)[C@@H](C)[C@@H]1O
[1]
  inhibitory effect (in words): strong inhibitory effects
  Zone of inhibition: 17 mm
[2]
  inhibitory effect (in words): strong inhibitory effects
  Zone of inhibition: 15 mm
[3]
  inhibitory effect (in words): strong inhibitory effects
  Zone of inhibition: 16 mm

## O=C(O)/C=C/c1ccc(Cn2ccnc2)cc1 [(E)-4-(1-imidazoylmethyl)cinnamic acid]
[1]
  inhibitory effect (in words): no inhibitory effect
  Zone of inhibition: 0 mm
[2]
  inhibitory effect (in words): no inhibitory effect
  Zone of inhibition: 0 mm
[3]
  inhibitory effect (in words): no inhibitory effect
  Zone of inhibition: 0 mm

Source: patent US20220354826A1, “PLEUROMUTILIN (E)-4-(1-IMIDAZOYLMETHYL )CINNAMIC ACID ESTER WITH ANTI-DRUG RESISTANT BACTERIA ACTIVITY AND A METHOD OF PREPARING THE SAME” (SHAANXI UNIVERSITY OF SCIENCE AND TECHNOLOGY, priority 2021, published 2022)
